Data reported in ChEMBL document CHEMBL4118098, “Discovery of DS28120313 as a potent orally active hepcidin production inhibitor: Design and optimization of novel 4,6-disubstituted indazole derivatives” (Bioorg Med Chem Lett, 2017).

Key:
[1] = target: Receptor tyrosine-protein kinase erbB-4 (Homo sapiens) (UniProt Q15303); experiment: Inhibition of HER4 (unknown origin) at 0.45 uM relative to control
[2] = target: Rho-associated protein kinase 1 (Homo sapiens) (UniProt Q13464); experiment: Inhibition of ROCK1 (unknown origin) at 0.45 uM relative to control
Chain of Rho-associated protein kinase 1 (Homo sapiens) (Q13464 2-1354 limits assumed): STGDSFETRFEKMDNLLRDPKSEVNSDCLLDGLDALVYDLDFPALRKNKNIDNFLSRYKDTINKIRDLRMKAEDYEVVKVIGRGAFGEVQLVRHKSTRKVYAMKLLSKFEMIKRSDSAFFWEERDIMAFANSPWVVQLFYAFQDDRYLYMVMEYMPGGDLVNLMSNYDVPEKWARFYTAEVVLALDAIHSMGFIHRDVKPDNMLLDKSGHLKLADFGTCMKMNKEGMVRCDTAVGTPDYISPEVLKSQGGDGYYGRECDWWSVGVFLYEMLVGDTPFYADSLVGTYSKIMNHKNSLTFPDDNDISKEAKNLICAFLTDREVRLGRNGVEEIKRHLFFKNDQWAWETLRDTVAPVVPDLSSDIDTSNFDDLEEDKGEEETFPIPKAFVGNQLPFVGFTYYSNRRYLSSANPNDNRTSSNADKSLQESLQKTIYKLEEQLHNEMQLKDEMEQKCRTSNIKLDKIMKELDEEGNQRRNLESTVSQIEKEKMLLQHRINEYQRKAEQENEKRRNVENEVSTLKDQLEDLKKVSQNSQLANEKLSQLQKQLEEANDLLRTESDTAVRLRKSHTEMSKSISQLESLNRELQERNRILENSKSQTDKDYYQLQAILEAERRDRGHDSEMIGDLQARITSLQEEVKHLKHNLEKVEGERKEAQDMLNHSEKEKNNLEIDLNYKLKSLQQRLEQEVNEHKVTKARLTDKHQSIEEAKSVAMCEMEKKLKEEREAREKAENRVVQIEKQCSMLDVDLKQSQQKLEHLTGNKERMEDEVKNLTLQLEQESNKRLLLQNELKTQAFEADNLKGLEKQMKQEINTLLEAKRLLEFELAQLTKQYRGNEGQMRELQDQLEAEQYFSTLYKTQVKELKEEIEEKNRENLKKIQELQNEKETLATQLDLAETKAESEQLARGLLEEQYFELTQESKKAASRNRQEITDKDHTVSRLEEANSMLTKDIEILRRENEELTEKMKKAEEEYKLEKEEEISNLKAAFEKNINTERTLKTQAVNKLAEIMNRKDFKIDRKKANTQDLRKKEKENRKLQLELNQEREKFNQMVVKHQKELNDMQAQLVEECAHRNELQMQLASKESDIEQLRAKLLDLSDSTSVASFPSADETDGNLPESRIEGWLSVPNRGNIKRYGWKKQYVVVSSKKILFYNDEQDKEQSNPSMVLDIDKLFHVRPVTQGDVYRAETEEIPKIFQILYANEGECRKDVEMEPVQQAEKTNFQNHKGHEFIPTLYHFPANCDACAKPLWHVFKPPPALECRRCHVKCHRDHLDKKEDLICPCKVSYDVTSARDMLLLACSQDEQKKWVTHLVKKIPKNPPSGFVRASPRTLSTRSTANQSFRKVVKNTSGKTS

[3] = target: Calcium/calmodulin-dependent protein kinase type 1 (Homo sapiens) (UniProt Q14012); experiment: Inhibition of CaMK1a (unknown origin) at 0.45 uM relative to control
Homo sapiens [4] = organism: Homo sapiens; experiment: Inhibition of PKA (unknown origin) at 0.45 uM relative to control
[5] = target: Serine/threonine-protein kinase PAK 3 (Homo sapiens) (UniProt O75914); experiment: Inhibition of PAK3 (unknown origin) at 0.19 uM relative to control
[6] = test system: Platelet-derived growth factor receptor alpha (Homo sapiens), P16234 [D842V]; experiment: Inhibition of PDGFRA D842V mutant (unknown origin) at 0.19 uM relative to control
[7] = target: Serine/threonine-protein kinase MARK2 (Homo sapiens) (UniProt Q7KZI7); experiment: Inhibition of MARK2 (unknown origin) at 0.19 uM relative to control
[8] = target: cAMP-dependent protein kinase catalytic subunit PRKX (Homo sapiens) (UniProt P51817); experiment: Inhibition of PRKX (unknown origin) at 0.19 uM relative to control
[9] = target: AMP-activated protein kinase, AMPK (Homo sapiens) (UniProt P54646+O43741+P54619+Q9UGJ0+Q9Y478+Q13131+Q9UGI9); experiment: Inhibition of AMPK (unknown origin) at 0.19 uM relative to control; format: protein-complex assay
[10] = target: Protein kinase C delta type (Homo sapiens) (UniProt Q05655); experiment: Inhibition of PKC-delta (unknown origin) at 0.19 uM relative to control
[11] = target: Inhibitor of nuclear factor kappa-B kinase subunit beta (Homo sapiens) (UniProt O14920); experiment: Inhibition of IKK-beta (unknown origin) at 0.19 uM relative to control
[12] = target: ALK tyrosine kinase receptor (Homo sapiens) (UniProt Q9UM73); experiment: Inhibition of ALK (unknown origin) at 0.19 uM relative to control
Homo sapiens [13] = organism: Homo sapiens; experiment: Inhibition of PKA (unknown origin) at 0.19 uM relative to control
[14] = target: Activated CDC42 kinase 1 (Homo sapiens) (UniProt Q07912); experiment: Inhibition of ACK (unknown origin) at 0.19 uM relative to control
[15] = target: Calcium/calmodulin-dependent protein kinase type II subunit alpha (Homo sapiens) (UniProt Q9UQM7); experiment: Inhibition of CaMK2a (unknown origin) at 0.19 uM relative to control
Chain of Calcium/calmodulin-dependent protein kinase type II subunit alpha (Homo sapiens) (Q9UQM7 whole entry): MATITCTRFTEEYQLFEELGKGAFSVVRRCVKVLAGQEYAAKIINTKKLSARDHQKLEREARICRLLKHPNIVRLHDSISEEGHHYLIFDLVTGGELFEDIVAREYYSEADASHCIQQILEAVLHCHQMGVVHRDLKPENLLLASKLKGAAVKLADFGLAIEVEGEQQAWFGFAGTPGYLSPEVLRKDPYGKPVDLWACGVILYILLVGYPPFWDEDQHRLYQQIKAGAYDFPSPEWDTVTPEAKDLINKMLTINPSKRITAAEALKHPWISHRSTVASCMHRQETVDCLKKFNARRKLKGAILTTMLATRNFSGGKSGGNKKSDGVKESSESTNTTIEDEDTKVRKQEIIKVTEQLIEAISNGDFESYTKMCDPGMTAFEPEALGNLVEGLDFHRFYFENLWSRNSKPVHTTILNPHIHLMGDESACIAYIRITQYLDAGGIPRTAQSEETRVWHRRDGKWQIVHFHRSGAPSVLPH

[16] = target: Tyrosine-protein kinase ABL2 (Homo sapiens) (UniProt P42684); experiment: Inhibition of Arg (unknown origin) at 0.19 uM relative to control
[17] = test system: Epidermal growth factor receptor (Homo sapiens), P00533 [T790M]; experiment: Inhibition of EGFR T790M mutant (unknown origin) at 0.19 uM relative to control
Chain of Epidermal growth factor receptor (Homo sapiens), P00533 [T790M] (P00533 whole entry T790M): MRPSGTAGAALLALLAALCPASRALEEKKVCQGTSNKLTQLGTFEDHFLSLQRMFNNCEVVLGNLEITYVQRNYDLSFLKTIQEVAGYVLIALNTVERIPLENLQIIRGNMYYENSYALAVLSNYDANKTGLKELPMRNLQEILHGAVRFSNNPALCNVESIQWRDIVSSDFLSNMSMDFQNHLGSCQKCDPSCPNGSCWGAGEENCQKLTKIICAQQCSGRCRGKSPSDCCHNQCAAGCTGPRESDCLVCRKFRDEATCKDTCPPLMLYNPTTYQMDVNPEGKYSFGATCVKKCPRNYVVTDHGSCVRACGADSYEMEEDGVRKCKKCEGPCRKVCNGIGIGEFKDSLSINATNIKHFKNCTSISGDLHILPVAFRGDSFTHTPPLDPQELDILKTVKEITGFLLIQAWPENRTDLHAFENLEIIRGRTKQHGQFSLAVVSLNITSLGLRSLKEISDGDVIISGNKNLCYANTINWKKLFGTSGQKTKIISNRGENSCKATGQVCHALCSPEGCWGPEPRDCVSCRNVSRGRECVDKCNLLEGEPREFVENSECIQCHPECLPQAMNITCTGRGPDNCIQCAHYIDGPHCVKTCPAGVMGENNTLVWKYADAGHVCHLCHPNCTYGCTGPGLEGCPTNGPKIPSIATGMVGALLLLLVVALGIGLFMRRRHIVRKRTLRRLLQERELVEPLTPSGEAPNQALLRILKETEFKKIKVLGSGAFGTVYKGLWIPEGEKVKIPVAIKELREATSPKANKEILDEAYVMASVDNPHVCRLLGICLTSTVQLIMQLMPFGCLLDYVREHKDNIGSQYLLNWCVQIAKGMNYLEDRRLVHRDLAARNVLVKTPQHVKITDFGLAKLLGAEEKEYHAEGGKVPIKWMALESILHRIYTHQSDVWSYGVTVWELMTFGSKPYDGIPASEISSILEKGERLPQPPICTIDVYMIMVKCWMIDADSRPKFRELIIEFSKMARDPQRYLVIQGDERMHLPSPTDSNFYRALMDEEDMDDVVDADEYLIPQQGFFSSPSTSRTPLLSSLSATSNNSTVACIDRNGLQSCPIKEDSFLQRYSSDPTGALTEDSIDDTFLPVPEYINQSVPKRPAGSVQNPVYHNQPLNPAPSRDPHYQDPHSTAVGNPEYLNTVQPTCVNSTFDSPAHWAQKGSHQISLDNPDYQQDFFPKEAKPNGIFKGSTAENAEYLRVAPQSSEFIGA

[18] = target: Insulin-like growth factor 1 receptor (Homo sapiens) (UniProt P08069); experiment: Inhibition of IGF1R (unknown origin) at 0.19 uM relative to control
[19] = target: PAS domain-containing serine/threonine-protein kinase (Homo sapiens) (UniProt Q96RG2); experiment: Inhibition of PASK (unknown origin) at 0.19 uM relative to control
[20] = target: Rho-associated protein kinase 2 (Homo sapiens) (UniProt O75116); experiment: Inhibition of ROCK2 (unknown origin) at 0.19 uM relative to control
[21] = target: MAP kinase-activated protein kinase 3 (Homo sapiens) (UniProt Q16644); experiment: Inhibition of MAPKAPK3 (unknown origin) at 0.19 uM relative to control
Chain of MAP kinase-activated protein kinase 3 (Homo sapiens) (Q16644 whole entry, looked up): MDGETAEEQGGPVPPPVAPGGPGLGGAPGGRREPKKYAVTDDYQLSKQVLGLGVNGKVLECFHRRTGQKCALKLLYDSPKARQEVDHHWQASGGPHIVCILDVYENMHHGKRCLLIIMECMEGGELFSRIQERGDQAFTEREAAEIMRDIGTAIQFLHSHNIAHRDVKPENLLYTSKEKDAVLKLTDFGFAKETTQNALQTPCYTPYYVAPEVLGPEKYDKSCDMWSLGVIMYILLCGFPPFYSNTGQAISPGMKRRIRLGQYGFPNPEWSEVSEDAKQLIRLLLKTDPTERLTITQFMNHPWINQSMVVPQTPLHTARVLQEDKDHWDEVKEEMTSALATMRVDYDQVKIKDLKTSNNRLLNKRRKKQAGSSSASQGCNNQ

[22] = target: Homeodomain-interacting protein kinase 3 (Homo sapiens) (UniProt Q9H422); experiment: Inhibition of HIPK3 (unknown origin) at 0.19 uM relative to control
[23] = target: Proto-oncogene tyrosine-protein kinase receptor Ret (Homo sapiens) (UniProt P07949); experiment: Inhibition of RET (unknown origin) at 0.19 uM relative to control
Chain of Proto-oncogene tyrosine-protein kinase receptor Ret (Homo sapiens) (P07949 whole entry): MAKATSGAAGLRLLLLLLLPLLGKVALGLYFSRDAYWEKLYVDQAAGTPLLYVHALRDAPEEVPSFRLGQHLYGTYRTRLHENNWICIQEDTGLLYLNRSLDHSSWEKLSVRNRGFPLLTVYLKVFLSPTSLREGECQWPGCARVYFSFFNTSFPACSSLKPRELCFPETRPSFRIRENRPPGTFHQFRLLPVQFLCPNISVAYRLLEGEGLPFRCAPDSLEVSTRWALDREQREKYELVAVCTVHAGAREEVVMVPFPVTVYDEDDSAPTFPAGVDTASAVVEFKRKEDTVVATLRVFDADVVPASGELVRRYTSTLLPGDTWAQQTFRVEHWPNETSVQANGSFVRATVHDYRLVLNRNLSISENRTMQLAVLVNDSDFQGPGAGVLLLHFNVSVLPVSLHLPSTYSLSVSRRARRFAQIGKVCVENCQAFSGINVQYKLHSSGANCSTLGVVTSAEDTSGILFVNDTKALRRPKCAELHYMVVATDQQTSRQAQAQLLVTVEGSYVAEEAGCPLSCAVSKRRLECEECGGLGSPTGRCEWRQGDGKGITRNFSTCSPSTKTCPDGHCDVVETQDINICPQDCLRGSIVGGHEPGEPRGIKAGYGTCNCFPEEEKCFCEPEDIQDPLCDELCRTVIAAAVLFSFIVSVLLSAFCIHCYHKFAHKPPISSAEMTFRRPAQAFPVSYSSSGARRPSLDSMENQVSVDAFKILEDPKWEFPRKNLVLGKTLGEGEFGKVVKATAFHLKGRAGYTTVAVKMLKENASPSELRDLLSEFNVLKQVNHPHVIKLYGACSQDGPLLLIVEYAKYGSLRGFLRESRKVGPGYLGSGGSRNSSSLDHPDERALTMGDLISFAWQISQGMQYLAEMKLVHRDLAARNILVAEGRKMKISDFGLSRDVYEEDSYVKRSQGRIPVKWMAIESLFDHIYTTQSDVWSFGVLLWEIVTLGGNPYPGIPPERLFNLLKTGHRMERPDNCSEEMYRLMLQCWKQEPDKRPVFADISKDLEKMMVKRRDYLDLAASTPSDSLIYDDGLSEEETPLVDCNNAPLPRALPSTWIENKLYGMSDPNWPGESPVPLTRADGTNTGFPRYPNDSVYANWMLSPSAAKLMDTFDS

[24] = target: Leukocyte tyrosine kinase receptor (Homo sapiens) (UniProt P29376); experiment: Inhibition of LTK (unknown origin) at 0.164 uM relative to control
[25] = target: Ephrin type-B receptor 2 (Homo sapiens) (UniProt P29323); experiment: Inhibition of EPHB2 (unknown origin) at 0.164 uM relative to control
[26] = target: Homeodomain-interacting protein kinase 2 (Homo sapiens) (UniProt Q9H2X6); experiment: Inhibition of HIPK2 (unknown origin) at 0.164 uM relative to control
[27] = target: Protein kinase C epsilon type (Homo sapiens) (UniProt Q02156); experiment: Inhibition of PKC-epsilon (unknown origin) at 0.164 uM relative to control
[28] = target: MAP kinase-activated protein kinase 2 (Homo sapiens) (UniProt P49137); experiment: Inhibition of MAPKAPK2 (unknown origin) at 0.164 uM relative to control
Chain of MAP kinase-activated protein kinase 2 (Homo sapiens) (P49137 whole entry, looked up): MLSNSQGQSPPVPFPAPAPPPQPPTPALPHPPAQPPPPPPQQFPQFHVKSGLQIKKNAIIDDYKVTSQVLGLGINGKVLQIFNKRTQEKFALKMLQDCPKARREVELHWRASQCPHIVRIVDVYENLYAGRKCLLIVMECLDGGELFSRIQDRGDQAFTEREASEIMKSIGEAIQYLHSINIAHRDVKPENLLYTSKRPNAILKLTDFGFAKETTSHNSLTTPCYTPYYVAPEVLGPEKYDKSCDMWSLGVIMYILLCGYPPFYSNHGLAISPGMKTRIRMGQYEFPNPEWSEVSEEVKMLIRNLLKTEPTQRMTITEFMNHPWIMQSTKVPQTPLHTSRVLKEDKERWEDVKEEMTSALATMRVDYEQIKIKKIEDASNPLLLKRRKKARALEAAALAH

[29] = target: Rho-associated protein kinase 1 (Homo sapiens) (UniProt Q13464); experiment: Inhibition of ROCK1 (unknown origin) at 0.164 uM relative to control
[30] = target: Serine/threonine-protein kinase 10 (Homo sapiens) (UniProt O94804); experiment: Inhibition of LOK (unknown origin) at 0.164 uM relative to control
[31] = test system: Tyrosine-protein kinase ABL1 (Homo sapiens), P00519 [E255K]; experiment: Inhibition of ABL1 E255K mutant (unknown origin) at 0.164 uM relative to control
[32] = test system: Tyrosine-protein kinase ABL1 (Homo sapiens), P00519 [T315I]; experiment: Inhibition of Abl T315I mutant (unknown origin) at 0.164 uM relative to control
[33] = target: Cyclin-dependent kinase 1/cyclin B1 (Homo sapiens) (UniProt P06493+P14635); experiment: Inhibition of CDK1/Cyclin B1 (unknown origin) at 0.164 uM relative to control; format: protein-complex assay
[34] = target: Proto-oncogene tyrosine-protein kinase receptor Ret (Homo sapiens) (UniProt P07949); experiment: Inhibition of RET (unknown origin) at 0.164 uM relative to control
[35] = target: Ribosomal protein S6 kinase (Homo sapiens) (UniProt P51812+Q9UBS0+O75676+Q15349+O75582+P23443+Q9UK32+Q15418); experiment: Inhibition of p70S6K (unknown origin) at 0.164 uM relative to control; format: protein assay
[36] = target: Glycogen synthase kinase-3 alpha (Homo sapiens) (UniProt P49840); experiment: Inhibition of GSK3-alpha (unknown origin) at 0.164 uM relative to control
[37] = target: Dual specificity tyrosine-phosphorylation-regulated kinase 1A (Homo sapiens) (UniProt Q13627); experiment: Inhibition of DYRK1a (unknown origin) at 0.164 uM relative to control
[38] = target: Serine/threonine-protein kinase 24 (Homo sapiens) (UniProt Q9Y6E0); experiment: Inhibition of MST3 (unknown origin) at 0.164 uM relative to control

Cc1n[nH]c(C)c1-c1ccc2c(NC(=O)c3ccc(N4CCN(C)CC4)cc3)n[nH]c2c1
inhibition [1]: -7%
inhibition [2]: -2%
inhibition [3]: -0.7%
inhibition (Homo sapiens [4]): 3%

Cc1[nH]nc(C2CC2)c1-c1ccc2c(-c3ccc(N4CCN(C)CC4)nc3)n[nH]c2c1
inhibition [5]: -0.7%
inhibition [6]: 99.7%
inhibition [7]: -5.3%
inhibition [8]: 2.3%
inhibition [9]: 38.7%
inhibition [10]: 0%
inhibition [11]: 8%
inhibition [12]: 6.7%
inhibition (Homo sapiens [13]): 5.7%
inhibition [14]: 3%
inhibition [15]: -2.3%
inhibition [16]: 57%
inhibition [17]: 0.7%
inhibition [18]: 5%
inhibition [19]: -3.3%
inhibition [20]: -1%
inhibition [21]: -1.7%
inhibition [22]: 1%
inhibition [23]: 47.3%

COC(=O)Nc1cc(-c2c(C3CC3)n[nH]c2C)cc2[nH]ncc12
inhibition [24]: -2.7%
inhibition [25]: -1%
inhibition [26]: 3.3%
inhibition [27]: -4%
inhibition [28]: 7%
inhibition [29]: -0.3%
inhibition [30]: 3.7%
inhibition [31]: -2.3%
inhibition [32]: -3.7%
inhibition [33]: -0.3%
inhibition [34]: 7.3%
inhibition [35]: 14.7%
inhibition [36]: 1%
inhibition [37]: 3.3%
inhibition [38]: 6%
